Reference: US20240246960A1 (adMare Therapeutics Society, priority 2021, published 2024)

Columns and labels:
[1] = Pharmacokinetic study in mice (IV, PO); type: in vivo, mice (C57BL/6); conditions: Mouse Plasma; for AUC(0-t) / half-life / AUC(0-inf) / Cmax / Cmax at 5 min: female, C57BL/6; for AUC(0-inf): read-out: AUCINF—obs; for Cmax: read-out: Cmax (5 min)
Experimental: Pharmacokinetic analysis of compounds was conducted following bolus intravenous (IV) or bolus oral (PO) gavage in mice. Female mice (C57BL/6) in the 17-26 g range were weighed, and then administered an individually prescribed dose volume based on body weight of formulated compound via the intravenous (IV; tail vein) or oral gavage (PO) route (IV 5 mL/kg; PO 10 mL/kg). At selected timepoints post administration, blood was collected into vials with anticoagulant, processed for plasma by centrifugation, and then kept frozen ([…]) until analysis.
(§1) The in-vivo study plasma samples were analyzed using Ultra Performance Liquid Chromatography (UPLC) with tandem mass spectrometry (MS/MS) detection in multiple reaction monitoring (MRM) mode. A generic bioanalytical method involving plasma sample extraction and cleanup by protein precipitation with acetonitrile was used followed by UPLC-MS/MS analysis.
(§2) A brief example of a generic bioanalytical UPLC-MS/MS method used for analysis of compounds in the in-vivo study plasma samples is as follows. Plasma samples were spiked with internal standard prior to extraction and cleanup by protein precipitation with ice cold acetonitrile containing 0.1% (v/v) ammonium hydroxide at a ratio of 3:1 (solvent:plasma) and centrifuged at 18213 rcf for 15 minutes at 4° C. to pellet precipitates. Aliquots of supernatants were transferred to a 96-well plate and evaporated to dryness at 40° C. under a stream of nitrogen gas. Samples were reconstituted in 50:50 acetonitrile/10 mM ammonium acetate buffer pH 8, mixed thoroughly and analyzed using Ultra Performance Liquid Chromatography (UPLC) with tandem mass spectrometry (MS/MS) detection in multiple reaction monitoring (MRM) mode. Matrix-matched calibration standards and quality control (QC) samples were prepared in naïve C57Bl/6 mouse plasma. The UPLC column used was Waters Acquity UPLC BEH C18 1.7 um, 2.1 mm×50 mm (with guard column). The UPLC mobile phase consisted of: Mobile phase A: 10 mM ammonium acetate in Water pH 8, and Mobile phase B: Acetonitrile. Separation was accomplished with a linear gradient of 5% mobile phase B to 95% mobile phase B in 2 min, and a flow rate of 0.35 mL/min. The MS/MS data acquisition was accomplished using 3 MRM Transitions in ESI+ mode. Parent ion mass 508.37 m/z-to-Daughter ions (m/z) 117.05, 232.13 and 270.22. The quantitation of concentrations in test samples was achieved by matrix-matched calibration with normalization using an internal standard. Data acquisition and analysis were performed using Waters MassLynx software with TargetLynx application manager.
(§3) Estimation of PK parameters was performed using independent noncompartmental model method by PHOENIX WinNonlin software.

[2] = Pharmacokinetic study in rats (IV, PO); type: in vivo, Sprague-Dawley rats; conditions: Table B, Rat Plasma; for AUC(0-t) / half-life / AUC(0-inf) / Cmax: male, Sprague-Dawley; for AUC(0-inf): read-out: AUCINF—obs; for Cmax: read-out: Cmax (5 min)
Experimental: Pharmacokinetic studies were conducted to estimate plasma concentrations obtained after oral gavage (PO) and intravenous (IV) single administration of compounds administered to male Sprague-Dawley rats. Six (6) rats were administered for each compound, route and dose, and plasma was collected at 12 timepoints over a 24 hr period for IV, and 12 timepoints over a 48 hr period for PO. Note that plasma was collected from only 3 animals per timepoint (n=3 for timepoints up to 10 hours, and n=3 for timepoints from 16 h to end of study). Dosing volumes were 5 mL/kg for IV and 10 mL/kg for PO gavage. IV compounds for administration were in solutions, whereas PO compounds were in solution or suspension.
as §1, §2, §3

[3] = Pharmacokinetic study in dogs (IV, PO); type: in vivo, Beagle dogs; conditions: Table C, Dog Plasma; for AUC(0-t) / Cmax at 5 min / half-life / AUC(0-inf): male, Beagle; for AUC(0-inf): read-out: AUCINF—obs
Experimental: Pharmacokinetic studies were conducted to estimate plasma concentrations obtained after oral gavage (PO) and intravenous (IV) single administration of compounds administered to separate groups of male Beagle dogs. Three (3) dogs were administered a compound via the intravenous (IV) route at 3 mg/kg and 2.5 mL/kg, and plasma was collected at 12 timepoints over a 24-hour period. Following a 7 days washout period, the same dogs were administered the same compound via PO at 10 mg/kg and 5 mL/kg, and plasma was collected at 12 timepoints over a 48-hour period.
as §1, §2, §3

O=C(N[C@H]1CC[C@@H](Oc2nc(N3CCOCC3)cc3ncccc23)CC1)c1ncccn1 [Compound 123, N-((1s,4s)-4-((7-Morpholino-1,6-naphthyridin-5-yl)oxy)cyclohexyl)pyrimidine-2-carboxamide]
AUC—%Extrap—obs ([1]; Table A, IV, 3 mg/kg): 0.73%
Cl_obs ([1]; Table A, IV, 3 mg/kg): 21.2632 mL/min/kg
Vz_obs ([1]; Table A, IV, 3 mg/kg): 3.93714 L/kg
AUC—%Extrap—obs ([1]; Table A, PO, 10 mg/kg): 6.92%
Cl_obs ([1]; Table A, PO, 10 mg/kg): 32.236 mL/min/kg
F ([1]; Table A, PO, 10 mg/kg): 62%
Vz_obs ([1]; Table A, PO, 10 mg/kg): 9.80258 L/kg
AUC(0-t) ([1]; Table A, IV, 3 mg/kg): 2330 ng·h/mL
half-life ([1]; Table A, IV, 3 mg/kg): 2.14 h
AUC(0-inf) ([1]; Table A, IV, 3 mg/kg): 2350 ng·h/mL
Cmax ([1]; Table A, IV, 3 mg/kg): 3660 ng/mL
AUC(0-t) ([1]; Table A, PO, 10 mg/kg): 4810 ng·h/mL
half-life ([1]; Table A, PO, 10 mg/kg): 3.51 h
AUC(0-inf) ([1]; Table A, PO, 10 mg/kg): 5170 ng·h/mL
Cmax ([1]; Table A, PO, 10 mg/kg): 2380 ng/mL
AUC—%Extrap—obs ([2]; IV, 3 mg/kg): 0.48%
Cl_obs ([2]; IV, 3 mg/kg): 50.8342 mL/min/kg
Vz_obs ([2]; IV, 3 mg/kg): 4.33451 L/kg
AUC—%Extrap—obs ([2]; PO, 3 mg/kg): 16.96%
Cl_obs ([2]; PO, 3 mg/kg): 252.6873 mL/min/kg
F ([2]; PO, 3 mg/kg): 17%
Vz_obs ([2]; PO, 3 mg/kg): 85.17336 L/kg
AUC—%Extrap—obs ([2]; PO, 10 mg/kg): 19.45%
Cl_obs ([2]; PO, 10 mg/kg): 92.7505 mL/min/kg
F ([2]; PO, 10 mg/kg): 44%
Vz_obs ([2]; PO, 10 mg/kg): 34.17323 L/kg
AUC—%Extrap—obs ([2]; PO, 30 mg/kg): 28.47%
Cl_obs ([2]; PO, 30 mg/kg): 43.6063 mL/min/kg
F ([2]; PO, 30 mg/kg): 84%
Vz_obs ([2]; PO, 30 mg/kg): 19.76577 L/kg
AUC(0-t) ([2]; IV, 3 mg/kg): 979 ng·h/mL
half-life ([2]; IV, 3 mg/kg): 0.99 h
AUC(0-inf) ([2]; IV, 3 mg/kg): 984 ng·h/mL
Cmax ([2]; IV, 3 mg/kg): 1490 ng/mL
AUC(0-t) ([2]; PO, 3 mg/kg): 164 ng·h/mL
half-life ([2]; PO, 3 mg/kg): 3.89 h
AUC(0-inf) ([2]; PO, 3 mg/kg): 198 ng·h/mL
Cmax ([2]; PO, 3 mg/kg): 32.2 ng/mL
AUC(0-t) ([2]; PO, 10 mg/kg): 1450 ng·h/mL
half-life ([2]; PO, 10 mg/kg): 4.26 h
AUC(0-inf) ([2]; PO, 10 mg/kg): 1800 ng·h/mL
Cmax ([2]; PO, 10 mg/kg): 396 ng/mL
AUC(0-t) ([2]; PO, 30 mg/kg): 8200 ng·h/mL
half-life ([2]; PO, 30 mg/kg): 5.24 h
AUC(0-inf) ([2]; PO, 30 mg/kg): 11500 ng·h/mL
Cmax ([2]; PO, 30 mg/kg): 1570 ng/mL
AUC—%Extrap—obs ([3]; IV, 3 mg/kg): 2.17%
Cl_obs ([3]; IV, 3 mg/kg): 10.237 mL/min/kg
Vz_obs ([3]; IV, 3 mg/kg): 4.4105 L/kg
AUC—%Extrap—obs ([3]; PO, 10 mg/kg): 0.29%
Cl_obs ([3]; PO, 10 mg/kg): 10.148 mL/min/kg
F ([3]; PO, 10 mg/kg): 108%
Vz_obs ([3]; PO, 10 mg/kg): 5.13768 L/kg
AUC(0-t) ([3]; IV, 3 mg/kg): 4940 ng·h/mL
Cmax at 5 min ([3]; IV, 3 mg/kg): 2470 ng/mL
half-life ([3]; IV, 3 mg/kg): 5.2 h
AUC(0-inf) ([3]; IV, 3 mg/kg): 5070 ng·h/mL
AUC(0-t) ([3]; PO, 10 mg/kg): 17800 ng·h/mL
Cmax at 5 min ([3]; PO, 10 mg/kg): 2970 ng/mL
half-life ([3]; PO, 10 mg/kg): 6.03 h
AUC(0-inf) ([3]; PO, 10 mg/kg): 17800 ng·h/mL

O=C(N[C@H]1CC[C@@H](Oc2nc(N3CCOCC3)cc3ncccc23)CC1)c1cc[nH]c1 [Compound 140, N-((1s,4s)-4-((7-morpholino-1,6-naphthyridin-5-yl)oxy)cyclohexyl)-1H-pyrrole-3-carboxamide]
AUC—%Extrap—obs ([1]; Table D, IV, 3 mg/kg): 0.91%
Cl_obs ([1]; Table D, IV, 3 mg/kg): 34.092 mL/min/kg
Vz_obs ([1]; Table D, IV, 3 mg/kg): 3.32052 L/kg
AUC—%Extrap—obs ([1]; Table D, PO, 10 mg/kg): 0.39%
Cl_obs ([1]; Table D, PO, 10 mg/kg): 77.5327 mL/min/kg
F ([1]; Table D, PO, 10 mg/kg): 44%
Vz_obs ([1]; Table D, PO, 10 mg/kg): 18.51427 L/kg
AUC(0-t) ([1]; Table D, IV, 3 mg/kg): 1450 ng·h/mL
Cmax at 5 min ([1]; Table D, IV, 3 mg/kg): 2020 ng/mL
half-life ([1]; Table D, IV, 3 mg/kg): 1.13 h
AUC(0-inf) ([1]; Table D, IV, 3 mg/kg): 1470 ng·h/mL
AUC(0-t) ([1]; Table D, PO, 10 mg/kg): 2140 ng·h/mL
Cmax at 5 min ([1]; Table D, PO, 10 mg/kg): 1240 ng/mL
half-life ([1]; Table D, PO, 10 mg/kg): 2.76 h
AUC(0-inf) ([1]; Table D, PO, 10 mg/kg): 2150 ng·h/mL
